Results reported in patent US20070197559A1, “Aryl substituted purine analogues” (priority 2004, published 2007).

Target: T1, human capsaicin receptor (Homo sapiens, UniProt Q8NER1)
T1 construct: transfected with the pBK-CMV expression construct encoding the full length human capsaicin receptor; expressed in transfected cells
Assay: Calcium mobilization assay, determination of antagonist activity
Assay type: cell-based
Conditions: cells expressing human capsaicin receptor, capsaicin-induced fluorescence response, Example 6
Description: A cDNA encoding full length human capsaicin receptor (SEQ ID NO:1, 2 or 3 of U.S. Pat. No. 6,482,611) is subcloned in the plasmid pBK-CMV (Stratagene, La Jolla, Calif.) for recombinant expression in mammalian cells.
Human embryonic kidney (HEK293) cells are transfected with the pBK-CMV expression construct encoding the full length human capsaicin receptor using standard methods. The transfected cells are selected for two weeks in media containing G418 (400 μg/ml) to obtain a pool of stably transfected cells. Independent clones are isolated from this pool by limiting dilution to obtain clonal stable cell lines for use in subsequent experiments.
Cells transfected with expression plasmids (as described in Example 4) and thereby expressing human capsaicin receptor are seeded and grown to 70-90% confluency in FALCON black-walled, clear-bottomed 96-well plates (#3904, BECTON-DICKINSON, Franklin Lakes, N.J.). The culture medium is emptied from the 96 well plates and FLUO-3 AM calcium sensitive dye (Molecular Probes, Eugene, Oreg.) is added to each well (dye solution: 1 mg FLUO-3 AM, 440 μL DMSO and […] pluronic acid in DMSO, diluted 1:250 in Krebs-Ringer HEPES (KRH) buffer (25 mM HEPES, 5 mM KCl, 0.96 mM NaH2PO4, 1 mM MgSO4, 2 mM CaCl2, 5 mM glucose, 1 mM probenecid, pH 7.4), 50 μl diluted solution per well). Plates are covered with aluminum foil and incubated at 37° C. for 1-2 hours in an environment containing 5% CO2. After the incubation, the dye is emptied from the plates, and the cells are washed once with KRH buffer, and resuspended in KRH buffer.
To measure the ability of a test compound to agonize or antagonize a calcium mobilization response in cells expressing capsaicin receptors to capsaicin or other vanilloid agonist, the EC50 of the agonist capsaicin is first determined. An additional 20 μl of KRH buffer and 1 μl DMSO is added to each well of cells, prepared as described above. 100 μl capsaicin in KRH buffer is automatically transferred by the FLIPR instrument to each well. Capsaicin-induced calcium mobilization is monitored using either FLUOROSKAN ASCENT (Labsystems; Franklin, Mass.) or FLIPR (fluorometric imaging plate reader system; Molecular Devices, Sunnyvale, Calif.) instruments. Data obtained between 30 and 60 seconds after agonist application are used to generate an 8-point concentration response curve, with final capsaicin concentrations of 1 nM to 3 μM. KALEIDAGRAPH software (Synergy Software, Reading, Pa.) is used to fit the data to the equation: y=a*(1/(1+(b/x)^c)) to determine the 50% excitatory concentration (EC50) for the response. In this equation, y is the maximum fluorescence signal, x is the concentration of the agonist or antagonist (in this case, capsaicin), a is the Emax, b corresponds to the EC50 value and c is the Hill coefficient. Determination of Agonist Activity
Test compounds are dissolved in DMSO, diluted in 20 μl KRH buffer so that the final concentration of test compounds in the assay well is between 1 μM and 5 μM, and added to cells prepared as described above. The 96 well plates containing prepared cells and test compounds are incubated in the dark, at room temperature for 0.5 to 6 hours. It is important that the incubation not continue beyond 6 hours. Just prior to determining the fluorescence response, 100 μl capsaicin in KRH buffer at twice the EC50 concentration determined as described above is automatically added by the FLIPR instrument to each well of the 96 well plate for a final sample volume of 200 μl and a final capsaicin concentration equal to the EC50. The final concentration of test compounds in the assay wells is between 1 μM and 5 μM. […] The concentration of antagonist required to provide a 50% decrease, relative to the response observed in the presence of capsaicin and without antagonist, is the IC50 for the antagonist, and is preferably below 1 micromolar, 100 nanomolar, 10 nanomolar or 1 nanomolar.

T1 sequence (Q8NER1 whole entry): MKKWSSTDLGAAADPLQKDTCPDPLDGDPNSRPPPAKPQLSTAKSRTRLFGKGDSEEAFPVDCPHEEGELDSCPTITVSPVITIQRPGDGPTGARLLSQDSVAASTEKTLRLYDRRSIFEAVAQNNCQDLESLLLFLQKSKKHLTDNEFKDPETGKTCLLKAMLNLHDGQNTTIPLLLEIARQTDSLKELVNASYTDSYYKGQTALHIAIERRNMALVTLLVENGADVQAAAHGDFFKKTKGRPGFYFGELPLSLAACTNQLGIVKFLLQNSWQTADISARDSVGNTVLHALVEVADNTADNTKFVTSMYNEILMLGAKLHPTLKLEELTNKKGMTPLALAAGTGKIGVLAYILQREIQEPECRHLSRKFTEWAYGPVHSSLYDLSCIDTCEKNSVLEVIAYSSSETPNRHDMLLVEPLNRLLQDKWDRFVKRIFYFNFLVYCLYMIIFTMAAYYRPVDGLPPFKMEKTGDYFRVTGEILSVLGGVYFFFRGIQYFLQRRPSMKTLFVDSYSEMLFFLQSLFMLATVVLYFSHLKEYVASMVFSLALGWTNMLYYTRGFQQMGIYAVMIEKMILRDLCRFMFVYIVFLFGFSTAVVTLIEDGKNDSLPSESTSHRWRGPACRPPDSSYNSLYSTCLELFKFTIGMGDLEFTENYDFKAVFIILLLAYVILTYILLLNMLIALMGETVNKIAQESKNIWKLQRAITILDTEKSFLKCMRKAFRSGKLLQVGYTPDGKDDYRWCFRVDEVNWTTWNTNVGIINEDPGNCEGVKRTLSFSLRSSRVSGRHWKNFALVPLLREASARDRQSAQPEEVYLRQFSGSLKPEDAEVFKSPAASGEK

Compound | IC50
CC(C)COCc1nc(Nc2ccc(C(C)(C)C#N)cc2)c2cnn(-c3ccccc3Cl)c2n1 [2-{4-[1-(2-Chloro-phenyl)-6-isobutoxymethyl-1H-pyrazolo[3,4-d]pyrimidin-4-ylamino]-phenyl}-2-methyl-propionitrile] | ≤ 1 µM
C[C@@H]1CN(Cc2nc(Nc3ccc(C(C)(C)C)cc3)c3cnn(-c4ccccc4Cl)c3n2)C[C@H](C)O1 [(4-tert-Butyl-phenyl)-[1-(2-chloro-phenyl)-6-(2,6-dimethyl-morpholin-4-ylmethyl)-1H-pyrazolo[3,4-d]pyrimidin-4-yl]-amine] | ≤ 1 µM
CC(C)COCc1nc(Nc2ccc(C(C)(C)C)cc2)c2cnn(-c3ccccc3Cl)c2n1 [(4-tert-Butyl-phenyl)-[1-(2-chloro-phenyl)-6-isobutoxymethyl-1H-pyrazolo[3,4-d]pyrimidin-4-yl]-amine] | ≤ 1 µM
O=S(=O)(c1ccc(Nc2ncnc3c2cnn3-c2ccccc2Cl)cc1)C(F)(F)F [[1-(2-Chloro-phenyl)-1H-pyrazolo[3,4-d]pyrimidin-4-yl]-(4-trifluoromethanesulfonyl-phenyl)-amine] | ≤ 1 µM
C[C@@H]1CN(Cc2nc(Nc3ccc(C(F)(F)F)cc3)c3cnn(-c4ccccc4Cl)c3n2)C[C@H](C)O1 [[1-(2-Chloro-phenyl)-6-(2,6-dimethyl-morpholin-4-ylmethyl)-1H-pyrazolo[3,4-d]pyrimidin-4-yl]-(4-trifluoromethyl-phenyl)-amine] | ≤ 1 µM
CC(C)COCc1nc(Nc2ccc(C(C)C)cc2)c2cnn(-c3ccccc3Cl)c2n1 [[1-(2-Chloro-phenyl)-6-isobutoxymethyl-1H-pyrazolo[3,4-d]pyrimidin-4-yl]-(4-isopropyl-phenyl)-amine] | ≤ 1 µM
CC(C)COCc1nc(Nc2ccc(C(F)(F)F)cc2)c2cnn(-c3ccccc3Cl)c2n1 [[1-(2-Chloro-phenyl)-6-isobutoxymethyl-1H-pyrazolo[3,4-d]pyrimidin-4-yl]-(4-trifluoromethyl-phenyl)-amine] | ≤ 1 µM
FC(F)(F)c1ccc(Nc2ncnc3c2cnn3-c2ncccc2Cl)cc1 [[1-(3-Chloro-pyridin-2-yl)-1H-pyrazolo[3,4-d]pyrimidin-4-yl]-(4-trifluoromethyl-phenyl)-amine] | ≤ 1 µM
FC(F)(F)c1ccc(Nc2ncnc3c2ncn3Cc2ccccc2Cl)cc1 [[9-(2-Chloro-benzyl)-9H-purin-6-yl]-(4-trifluoromethyl-phenyl)-amine] | ≤ 1 µM

Further lines, results first:

IC50 | Compound
≤ 1 µM | CC(C)(C#N)c1ccc(Nc2ncnc3c2ncn3-c2cccc(Cl)c2)cc1 [2-{4-[9-(3-Chloro-phenyl)-9H-purin-6-ylamino]-phenyl}-2-methyl-propionitrile]
≤ 1 µM | N#Cc1ccc(Nc2ncnc3c2ncn3-c2cccc(Cl)c2)cc1 [4-[9-(3-Chloro-phenyl)-9H-purin-6-ylamino]-benzonitrile]
≤ 1 µM | Clc1ccc(Nc2ncnc3c2ncn3-c2cccc(Cl)c2)cc1 [(4-Chloro-phenyl)-[9-(3-chloro-phenyl)-9H-purin-6-yl]-amine]
≤ 1 µM | CC(C)(C)c1ccc(Nc2ncnc3c2cnn3-c2ncccc2Cl)cc1 [(4-tert-Butyl-phenyl)-[1-(3-chloro-pyridin-2-yl)-1H-pyrazolo[3,4-d]pyrimidin-4-yl]-amine]
≤ 1 µM | CC(C)(C)c1ccc(Nc2ncnc3c2ncn3Cc2ccccc2Cl)cc1 [(4-tert-Butyl-phenyl)-[9-(2-chloro-benzyl)-9H-purin-6-yl]-amine]
≤ 1 µM | Cc1nc2c(Nc3ccc(C(C)(C)C)cc3)ncnc2n1-c1ccccc1Cl [(4-tert-Butyl-phenyl)-[9-(2-chloro-phenyl)-8-methyl-9H-purin-6-yl]amine]
≤ 1 µM | CC(C)(C)c1ccc(Nc2ncnc3c2ncn3-c2ccccc2Cl)cc1 [(4-tert-Butyl-phenyl)-[9-(2-chloro-phenyl)-9H-purin-6-yl]-amine]
≤ 1 µM | CC(C)(C)c1ccc(Nc2ncnc3c2ncn3-c2cccc(Cl)c2)cc1 [(4-tert-Butyl-phenyl)-[9-(3-chloro-phenyl)-9H-purin-6-yl]-amine]
≤ 1 µM | FC(F)(F)c1ccc(Nc2ncnc3c2ncn3-c2cccc(Cl)c2)cc1 [[9-(3-Chloro-phenyl)-9H-purin-6-yl]-(4-trifluoromethyl-phenyl)-amine]

Target: vanilloid receptor (VR) (Homo sapiens, UniProt Q8NER1)
Sequence (Q8NER1 whole entry): as above
Assay: not given
Conditions: typical value, background; read-out: Ki value (binding to VR); cited from earlier work

Compound | Ki
Cl.Cl.Cl.Cl.Cl.Cl.N.N.N.N.N.N.N.N.N.N.N.N.N.N.[O-2].[O-2].[Ru+3].[Ru+3].[Ru+4] [ruthenium red] | ≥ 140 µM
